In US10760110B2, “Antibiotic testing and screening system” (priority 2017, dated 2020):
Like-named read-outs stand apart in the source and are kept apart here.

Columns and labels:
[1] = system: K. pneumoniae NVT1001 gyrA/parC and gyrA/parC/ramR mutants and revertants; assay: Etest MIC of quinolones, gyrA/parC and gyrA/parC/ramR mutants and their revertants (Table 11); format: cell-based; conditions: Klebsiella pneumoniae
Source text: The allelic-exchange method was used to restore the wild-type gene in the K. pneumoniae NVT1001 mutants with constructed chromosome-mediated resistance mechanisms, as described by Tsai et al.^19 Briefly, a DNA fragment of the entire wild-type gene sequence along with flanking regions was amplified from K. pneumoniae NVT1001 using PCR with specific primers. The resulting PCR fragment was digested and then cloned into pUT-KB. For homologous recombination, this plasmid was transformed into E. coli S17-1 λpir^23 via electroporation and mobilized into the K. pneumoniae NVT1001 mutant via conjugation. […] After incubation in 20 mL BHI broth for 6 hours at 37° C. in the absence of kanamycin, the fully grown cultures were spread onto LB agar plates supplemented with 10% sucrose. After the double crossover occurred, the sucrose-resistant and kanamycin-susceptible colonies were selected, and the restoration of the wild-type gene was confirmed via DNA sequencing.
(§1) The MICs of antibiotics were determined using the Etest (Biodisk AB, Sweden) according to the manufacturer's instructions. The MICs from the Etest, which fall between standard two-fold dilutions, were rounded up to the next highest two-fold value. The MICs of ceftazidime and cefotaxime against K. pneumoniae NVT1001 harbouring the pACYC177 plasmid with blaOXA-48 were further determined using a broth microdilution test according to the recommendations of the CLSI,^25 and the results were interpreted according to the breakpoints established by the CLSI in 2017.^25 Meanwhile, due to the lack of CLSI breakpoints in 2016 and 2017, the results for cephalothin were interpreted according to the breakpoints established by the CLSI in 2015,^26 and the results for moxifloxacin were interpreted according to the breakpoints established by the EUCAST in 2017.^27

[2] = system: K. pneumoniae NVT1001 strains with QnrB, QnrS or AAC(6′)-Ib-cr plasmids; assay: Etest MIC of quinolones, GyrA/ParC mutations, ΔramR and/or QnrB, QnrS or AAC(6′)-Ib-cr (Table 12); format: cell-based; conditions: Klebsiella pneumoniae
Protocol: DNA fragments of the resistance genes along with their flanking regions were amplified from clinical plasmids via PCR with specific primer pairs. The resulting PCR fragments were digested and then cloned into the plasmid pACYC177 or pACYC184. The resulting plasmids were then transformed into K. pneumoniae strain NVT1001 via electroporation. The recombinant bacteria were plated onto LB agar plates containing kanamycin (50 mg/L) or chloramphenicol (50 mg/L), and the presence of the cloned gene was confirmed via PCR and DNA sequencing.
as §1

[3] = S83F/D87N/S80I::F83S/N87D/I80S revertant, read-out: MIC
[4] = S83F/D87N/S80I::I80S revertant, read-out: MIC
[5] = S83F/D87N/S80I::N87D revertant, read-out: MIC
[6] = S83F/D87N/S80I::N87D/I80S revertant, read-out: MIC
[7] = S83I/D87N/S80I::I80S revertant, read-out: MIC
[8] = S83I/D87N/S80I::I83S/N87D/I80S revertant, read-out: MIC
[9] = S83I/D87N/S80I::N87D revertant, read-out: MIC
[10] = S83I/D87N/S80I::N87D/I80S revertant, read-out: MIC
[11] = S83L/D87N/S80I::I80S revertant, read-out: MIC
[12] = S83L/D87N/S80I::L83S/N87D/I80S revertant, read-out: MIC
[13] = S83L/D87N/S80I::N87D revertant, read-out: MIC
[14] = S83L/D87N/S80I::N87D/I80S revertant, read-out: MIC
[15] = S83Y/D87N/S80I::I80S revertant, read-out: MIC
[16] = S83Y/D87N/S80I::N87D revertant, read-out: MIC
[17] = S83Y/D87N/S80I::N87D/I80S revertant, read-out: MIC
[18] = S83Y/D87N/S80I::Y83S/N87D/I80S revertant, read-out: MIC
[19] = ΔramR/S83I/D87N/S80I:: ramR/I83S revertant
[20] = ΔramR/S83I/D87N/S80I:: ramR/I83S/I80S revertant
[21] = ΔramR/S83I/D87N/S80I:: ramR/I83S/N87D revertant
[22] = ΔramR/S83I/D87N/S80I::I83S/N87D/I80S revertant
[23] = ΔramR/S83I/D87N/S80I::N87D revertant
[24] = ΔramR/S83I/D87N/S80I::N87D/I80S revertant
[25] = ΔramR/S83I/D87N/S80I::ramR/I83S/N87D/I80S
[26] = AAC(6′)-Ib-cr on pACYC177, S83I mutant
[27] = AAC(6′)-Ib-cr on pACYC177, S83I/D87N/S80I mutant
[28] = AAC(6′)-Ib-cr on pACYC177, S83I/S80I mutant
[29] = AAC(6′)-Ib-cr on pACYC177, WT (NVT1001), read-out: MIC
[30] = AAC(6′)-Ib-cr on pACYC177, ΔramR mutant
[31] = AAC(6′)-Ib-cr on pACYC177, ΔramR/S83I mutant
[32] = AAC(6′)-Ib-cr on pACYC177, ΔramR/S83I/D87N/S80I mutant
[33] = AAC(6′)-Ib-cr on pACYC177, ΔramR/S83I/S80I mutant
[34] = QnrB on pACYC177, S83I/D87N/S80I mutant
[35] = QnrB on pACYC177, S83I/S80I mutant
[36] = QnrB on pACYC177, WT (NVT1001), read-out: MIC
[37] = QnrB on pACYC177, ΔramR/S83I mutant
[38] = QnrB on pACYC177, ΔramR/S83I/D87N/S80I mutant
[39] = QnrB on pACYC177, ΔramR/S83I/S80I mutant
[40] = QnrS on pACYC177, S83I/D87N/S80I mutant
[41] = QnrS on pACYC177, S83I/S80I mutant
[42] = QnrS on pACYC177, WT (NVT1001), read-out: MIC
[43] = QnrS on pACYC177, ΔramR/S83I mutant
[44] = QnrS on pACYC177, ΔramR/S83I/D87N/S80I mutant
[45] = QnrS on pACYC177, ΔramR/S83I/S80I mutant
[46] = no supplemental plasmid, S83I mutant
[47] = no supplemental plasmid, S83I/D87N/S80I mutant
[48] = no supplemental plasmid, S83I/S80I mutant
[49] = no supplemental plasmid, WT (NVT1001), read-out: MIC
[50] = no supplemental plasmid, ΔramR mutant
[51] = no supplemental plasmid, ΔramR/S83I mutant
[52] = no supplemental plasmid, ΔramR/S83I/D87N/S80I mutant
[53] = no supplemental plasmid, ΔramR/S83I/S80I mutant

`CC1COc2c(N3CCN(C)CC3)c(F)cc3c(=O)c(C(=O)O)cn1c23` (stereo not drawn) [Ofloxacin, ofloxacin] gave an MIC ([1]; S83F/D87N/S80I mutant) of 16 mg/L, an MIC [1, 3] of 0.25 mg/L and an MIC [1, 4] of 2 mg/L. It also gave an MIC [1, 5] of 4 mg/L, an MIC [1, 6] of 2 mg/L and an MIC ([1]; S83I/D87N/S80I mutant) of 32 mg/L. For the same compound, the MIC [1, 7] was 2 mg/L, the MIC [1, 8] was 0.25 mg/L and the MIC [1, 9] was 8 mg/L. For the same compound, the MIC [1, 10] was 2 mg/L, the MIC ([1]; S83L/D87N/S80I mutant) was 32 mg/L and the MIC [1, 11] was 2 mg/L. The MIC [1, 12] was 0.25 mg/L, the MIC [1, 13] was 4 mg/L and the MIC [1, 14] was 2 mg/L. The MIC ([1]; S83Y/D87N/S80I mutant) was 16 mg/L, the MIC [1, 15] was 2 mg/L and the MIC [1, 16] was 4 mg/L. The MIC [1, 17] was 2 mg/L, the MIC [1, 18] was 0.25 mg/L and the MIC ([1]; ΔramR/S83I/D87N/S80I mutant) was > 32 mg/L. The MIC [1, 19] was 1 mg/L, the MIC [1, 20] was 1 mg/L and the MIC [1, 21] was 0.25 mg/L. The MIC [1, 22] was 2 mg/L, the MIC [1, 23] was > 32 mg/L and the MIC [1, 24] was > 32 mg/L. The MIC [1, 25] was 0.25 mg/L, the MIC [2, 26] was 4 mg/L and the MIC [2, 27] was 32 mg/L. It also gave an MIC [2, 28] of 8 mg/L, an MIC [2, 29] of 0.25 mg/L and an MIC [2, 30] of 2 mg/L. The MIC [2, 31] was > 32 mg/L, the MIC [2, 32] was > 32 mg/L and the MIC [2, 33] was > 32 mg/L. The MIC ([2]; QnrB on pACYC177, S83I mutant) was 8 mg/L, the MIC [2, 34] was > 32 mg/L and the MIC [2, 35] was > 32 mg/L. The MIC [2, 36] was 4 mg/L, the MIC ([2]; QnrB on pACYC177, ΔramR mutant) was 32 mg/L and the MIC [2, 37] was > 32 mg/L. For the same compound, the MIC [2, 38] was > 32 mg/L, the MIC [2, 39] was > 32 mg/L and the MIC ([2]; QnrS on pACYC177, S83I mutant) was 8 mg/L. For the same compound, the MIC [2, 40] was > 32 mg/L, the MIC [2, 41] was > 32 mg/L and the MIC [2, 42] was 4 mg/L. For the same compound, the MIC ([2]; QnrS on pACYC177, ΔramR mutant) was 16 mg/L, the MIC [2, 43] was > 32 mg/L and the MIC [2, 44] was > 32 mg/L. For the same compound, the MIC [2, 45] was > 32 mg/L, the MIC [2, 46] was 2 mg/L and the MIC [2, 47] was 32 mg/L. The MIC [2, 48] was 4 mg/L, the MIC [2, 49] was 0.25 mg/L and the MIC [2, 50] was 2 mg/L. For the same compound, the MIC [2, 51] was > 32 mg/L, the MIC [2, 52] was > 32 mg/L and the MIC [2, 53] was > 32 mg/L.

For `CCn1cc(C(=O)O)c(=O)c2cc(F)c(N3CCNCC3)cc21` [Norfloxacin, norfloxacin], the MIC ([1]; S83F/D87N/S80I mutant) was 32 mg/L, the MIC [1, 3] was 0.25 mg/L and the MIC [1, 4] was 2 mg/L. For the same compound, the MIC [1, 5] was 4 mg/L, the MIC [1, 6] was 2 mg/L and the MIC ([1]; S83I/D87N/S80I mutant) was 64 mg/L. It also gave an MIC [1, 7] of 2 mg/L, an MIC [1, 8] of 0.25 mg/L and an MIC [1, 9] of 16 mg/L. For the same compound, the MIC [1, 10] was 2 mg/L, the MIC ([1]; S83L/D87N/S80I mutant) was 64 mg/L and the MIC [1, 11] was 2 mg/L. It also gave an MIC [1, 12] of 0.25 mg/L, an MIC [1, 13] of 8 mg/L and an MIC [1, 14] of 2 mg/L. For the same compound, the MIC ([1]; S83Y/D87N/S80I mutant) was 32 mg/L, the MIC [1, 15] was 2 mg/L and the MIC [1, 16] was 4 mg/L. For the same compound, the MIC [1, 17] was 2 mg/L, the MIC [1, 18] was 0.25 mg/L and the MIC ([1]; ΔramR/S83I/D87N/S80I mutant) was > 256 mg/L. It also gave an MIC [1, 19] of 2 mg/L, an MIC [1, 20] of 1 mg/L and an MIC [1, 21] of 0.25 mg/L. For the same compound, the MIC [1, 22] was 2 mg/L, the MIC [1, 23] was 128 mg/L and the MIC [1, 24] was 8 mg/L. The MIC [1, 25] was 0.25 mg/L, the MIC [2, 26] was 8 mg/L and the MIC [2, 27] was > 256 mg/L. The MIC [2, 28] was 128 mg/L, the MIC [2, 29] was 1 mg/L and the MIC [2, 30] was 8 mg/L. For the same compound, the MIC [2, 31] was 128 mg/L, the MIC [2, 32] was > 256 mg/L and the MIC [2, 33] was > 256 mg/L. For the same compound, the MIC ([2]; QnrB on pACYC177, S83I mutant) was 8 mg/L, the MIC [2, 34] was > 256 mg/L and the MIC [2, 35] was > 256 mg/L. For the same compound, the MIC [2, 36] was 2 mg/L, the MIC ([2]; QnrB on pACYC177, ΔramR mutant) was 16 mg/L and the MIC [2, 37] was 64 mg/L. The MIC [2, 38] was > 256 mg/L, the MIC [2, 39] was > 256 mg/L and the MIC ([2]; QnrS on pACYC177, S83I mutant) was 8 mg/L. It also gave an MIC [2, 40] of 128 mg/L, an MIC [2, 41] of 64 mg/L and an MIC [2, 42] of 2 mg/L. For the same compound, the MIC ([2]; QnrS on pACYC177, ΔramR mutant) was 32 mg/L, the MIC [2, 43] was 64 mg/L and the MIC [2, 44] was > 256 mg/L. The MIC [2, 45] was > 256 mg/L, the MIC [2, 46] was 2 mg/L and the MIC [2, 47] was 64 mg/L. It also gave an MIC [2, 48] of 16 mg/L, an MIC [2, 49] of 0.25 mg/L and an MIC [2, 50] of 2 mg/L. The MIC [2, 51] was 8 mg/L, the MIC [2, 52] was > 256 mg/L and the MIC [2, 53] was 128 mg/L.
